According to patent US20200397718A1, “USE OF HYDROXYTYROSOL ACETATE IN IMPROVING FUNCTION OF AORTIC ENDOTHELIAL CELL” (XI'AN JIAOTONG UNIVERSITY, priority 2019, published 2020):

Legend:
[1] = tested on: interleukin-6 (IL-6) mRNA; assay: mRNA level corresponding to IL-6 (RT-PCR) in HAECs; type: cell-based, human; conditions: 500 μM palmitic acid, 24 h
Protocol: (§1) Human aortic endothelial cells (HAECs) were purchased from Shanghai Shanghai Bioleaf Biotech Co., Ltd. Palmitic acid (PA) was purchased from SIGMA Company. A palmitic acid solution having a concentration of 500 μM was prepared by dissolving palmitic acid in water. A cell culture incubator was adopted to culture the cells in a temperature-constant, humidified, sterile condition. The cells were cultured in wells of culture plates at an atmosphere of 95% air and 5% CO2 at 37° C. in the incubator. The experiments were performed on different experimental groups of cells. […]
(§2) The HAECs that were previously cultured in a 12-well cell culture plate were divided into 5 different experimental groups and respectively applied with hydroxytyrosol acetate in respective concentrations, 0 μM, 0 μM, 10 μM, 50 μM, and 100 μM, all followed with an 24-hour incubation. […] The detecting of mRNA levels corresponding to interleukin-6 (IL-6), matrix metalloproteinase-1 (MMP-1), intercellular adhesion molecule-1 (ICAM-1) and plasma plasminogen activator inhibitor-1 (PAI-1) were respectively carried out on each group of cells by using reverse transcription RNA and real-time quantitative polymerase chain reaction (PCR), and the specific method is as follows:
(§3) The medium for cell culture in the wells was removed. […] The concentration of the solution was measured by an ultraviolet spectrophotometer. […]

[2] = tested on: reactive oxygen species in human aortic endothelial cells; assay: Detection of reactive oxygen species (H2DCF-DA) in HAECs; type: cell-based
Protocol: (§4) Human aortic endothelial cells (HAECs) were purchased from Shanghai Shanghai Bioleaf Biotech Co., Ltd. Palmitic acid (PA) was purchased from SIGMA Company. A palmitic acid solution having a concentration of 500 μM was prepared by dissolving palmitic acid in water. A cell culture incubator was adopted to culture the cells in a temperature-constant, humidified, sterile condition. The cells were cultured in wells of culture plates at an atmosphere of 95% air and 5% CO2 at 37° C. in the incubator. The experiments were performed on different experimental groups of cells. The experiments were performed on three experimental groups of cells: (1) control group; (2) 500 μM palmitic acid treatment group; and (3) hydroxytyrosol acetate protection group.
The cultured HAECs were divided into 3 different experimental groups, the control (Ctrl) group, the PA group, and the hydroxytyrosol acetate+PA (HTac+PA) group. The cells of the HTac+PA group were applied with hydroxytyrosol acetate in a concentration of 100 μM followed with a 24-hour incubation. Then, the cells of both the PA group and the HTac+PA group were applied with 500 μM palmitic acid, all followed with another 24-hour incubation.
After treating the cells with hydroxytyrosol acetate and palmitic acid, and discarding the medium, the cells were rinsed once with PBS. […] The supernatant was collected and measured by a microplate reader.

[3] = tested on: matrix metalloproteinase-1 (MMP-1) mRNA; assay: mRNA level corresponding to MMP-1 (RT-PCR) in HAECs; type: cell-based, human; conditions: 500 μM palmitic acid, 24 h
Protocol: as §1, §2, §3

[4] = tested on: mitochondrial membrane fusion-related proteins Mfn1, Mfn2; assay: Western blot of mitochondrial membrane fusion-related proteins in HAECs; type: cell-based, human
Protocol: as §4, with “group. […]” for “group.”
The medium for cell culture in the wells was removed. […] The supernatants were collected, and the proteins therein were quantified by bicinchoninic acid (BCA) assay, and normalized. […]
10 μg of the extracted proteins were subjected to gel electrophoresis with 10% acrylamide gel, and electrophoretic transferred onto a PVDF membrane, which were blocked, and incubated with a primary antibody at 4° C. overnight, free primary antibody was washed away. […] Target proteins were detected by chemiluminescence.

[5] = tested on: IL-6, MMP-1, ICAM-1 and PAI-1 mRNA in human aortic endothelial cells; assay: mRNA levels of IL-6, MMP-1, ICAM-1 and PAI-1 (RT-PCR) in palmitic acid-induced inflammation of HAECs; type: cell-based
Protocol: as §4
The HAECs that were previously cultured in a 12-well cell culture plate were divided into 5 different experimental groups and respectively applied with hydroxytyrosol acetate in respective concentrations, 0 μM, 0 μM, 10 μM, 50 μM, and 100 μM, all followed with an 24-hour incubation. Then, the last 4 groups of cells were respectively applied with 500 μM palmitic acid, the first was not, all followed with another 24-hour incubation. The detecting of mRNA levels corresponding to interleukin-6 (IL-6), matrix metalloproteinase-1 (MMP-1), intercellular adhesion molecule-1 (ICAM-1) and plasma plasminogen activator inhibitor-1 (PAI-1) were respectively carried out on each group of cells by using reverse transcription RNA and real-time quantitative polymerase chain reaction (PCR), and the specific method is as follows:
The medium for cell culture in the wells was removed. 500 μL of TRIzol™ reagent was added to each well, and the culture plate was then shaken at room temperature for 5 minutes. Then the cells in the wells were collected and transferred to a 1.5 mL Eppendorf® (EP) tube. 200 μl (taking ⅕ of total volume of the substance in the EP tube) of chloroform was then added to the EP tube for extraction of protein. […] The concentration of the solution was measured by an ultraviolet spectrophotometer. […]

[6] = tested on: human aortic endothelial cells (HAECs); assay: MTT assay, relative cell viability of human aortic endothelial cells; type: cell-based
Protocol: as §4
The HAECs that were previously cultured in a 12-well cell culture plate were divided into 4 different experimental groups and respectively applied with hydroxytyrosol acetate in different concentrations, 0 μM, 10 μM, 50 μM, and 100 μM, all followed with an 24-hour incubation. […]
An MTT assay was performed to all groups of cells. […] The absorbance was measured at a wavelength of 490 nm in a spectrophotometer. The absorbance of this colored solution can be quantified by measuring at a certain wavelength (usually between 500 and 600 nm) by a spectrophotometer.

[7] = 100 μM, 24 h pre-treatment, then 500 μM palmitic acid 24 h

Compound: CCCCCCCCCCCCCCCC(=O)O [palmitic acid, reference compound]
- increase of mRNA level corresponding to IL-6 versus control [1]: about 20 times
- production of reactive oxygen species ROS ([2]; 500 μM palmitic acid, 24 h): a large amount
- increase of mRNA level corresponding to MMP-1 versus control [3]: about 10 times
- expression of mitochondrial membrane fusion-related proteins Mfn1, Mfn2 ([4]; 500 μM palmitic acid, 24 h): reducing
- inflammatory cytokines IL-6, MMP-1, ICAM-1 and PAI-1 versus control group ([5]; 500 μM palmitic acid, 24 h): significantly higher

Compound: hydroxytyrosol acetate
- production of excessive reactive oxygen species induced by palmitic acid [2, 7]: significantly inhibit
- expression of Mfn2 [4, 7]: significantly increasing
- inhibition of the palmitic acid-induced inflammatory response (mRNA IL-6, MMP-1, ICAM-1, PAI-1) ([5]; 50 μM, 24 h pre-treatment, then 500 μM palmitic acid 24 h): significant inhibition
- inhibitory effect on the palmitic acid-induced inflammatory response (mRNA IL-6, MMP-1, ICAM-1, PAI-1) ([5]; 100 μM, 24 h pre-treatment, then 500 μM palmitic acid 24 h, compared with 50 μM): more obvious
- proliferation of human aortic endothelial cells ([6]; 100 μM hydroxytyrosol acetate, 24 h): promoted
- toxic and side effects on human aortic endothelial cells ([6]; HAECs, 0-100 μM, FIG. 1): no toxic and side effects
